{"source": "patent US11028061B2", "about": "“Modulators of myocyte lipid accumulation and insulin resistance and methods of use thereof” (Sanford Burnham Prebys Medical Discovery Institute, priority 2015, dated 2021)", "key": {"H9c2 myotubes": {"system": "H9c2 myotubes", "experiment": "Glycogen synthesis in H9c2 myotubes", "type": "cell-based, Rat"}, "human TXNIP promoter": {"system": "human TXNIP promoter", "experiment": "TXNIP promoter luciferase reporter assay in H9c2 myocytes", "type": "cell-based, rat", "details": "24 hours", "experimental": "Transient transfections were performed using Attractene (Qiagen) according to the manufacturer's protocols. A full length (1.5 kb) and two serial deletion (1.0 kb and 0.5 kb) reporters of the human TXNIP promoter were generously provided by Dr. Fumihiko Urano (Washington University School of Medicine). Mutation of the carbohydrate-responsive elements (ChoREs) of the reporters was generated by QuikChange II Site-Directed Mutagenesis kit (Agilent). H9c2 myoblast cells (ATCC) were cotransfected with 700 ng of the reporter and 25 ng of CMV promoter driven Renilla luciferase as a control for transfection efficiency. Eighteen hours after transfection, the cells were cultured in DMEM supplemented with 1% fetal bovine serum to induce differentiation for 4 days. SBI-477 was added during the last 24 hours at the indicated concentration. After compound incubation, luciferase activity was measured using the Dual-Glo luciferase assay system (Promega) according to the manufacturer's protocols."}, "AMPK": {"system": "AMPK", "experiment": "Western blot of AMPK activation", "type": "cell-based, human", "details": "24 hours", "experimental": "FIGS. 3D and G show SBI-477-mediated increase in glucose uptake in oleate-loaded skeletal myotubes (FIG. 3D) SBI-477 increases glucose uptake in oleate-loaded human skeletal myotubes. Basal and insulin-stimulated [3H]2-DG uptake was measured in human skeletal myotubes following treatment with SBI-477 for 24 hours in the presence of 100 μM oleate or BSA as a control. *p<0.05 vs. vehicle, †p<0.05 vs. vehicle/insulin by one-way ANOVA with Bonferroni post hoc test. FIG. 3G—Western blot analysis (left) of human myotubes treated with SBI-477 for 24 hours was performed to determine activation of S6K and AMPK using the indicated phospho-specific antibodies. Insulin treatment (100 nM) for 30 minutes was used as positive control. Quantitation (right) of the Western blot data is shown (n=4-5). *p<0.05 vs. Vehicle by one-way ANOVA with Bonferroni post hoc test. The data represent mean±SD.\nCells were lysed in the RIPA buffer containing 1% NP-40, 5 mM Na4P2O7, 1 mM EDTA, 20 mM NaF, 2 mM Na3VO4, 1× cOmplete™ protease inhibitor (Roche) and 1 mM phenylmethylsulfonyl fluoride. Whole cell lysates were subjected to SDS-PAGE and transferred to a nitrocellulose membrane. The blots were hybridized with specific antibodies and developed with enhanced chemiluminescence kit (Pierce). […] Protein quantification was performed using FluorChemQ (Alpha Innotech) and normalized to […]-actin or total protein where indicated."}, "[1]": {"experiment": "Intracellular lipolysis rates", "type": "cell-based", "details": "data not shown"}}, "data": [{"smiles": "COc1ccc(-c2csc(NC(=O)c3ccc(OCC(=O)N4CCOCC4)c(OC)c3)n2)cc1", "note": "[Cpd. 7, 3-methoxy-N-(4-(4-methoxyphenyl)thiazol-2-yl)-4-(2-morpholino-2-oxoethoxy)benzamide]", "values": [{"measurement": "Insulin-stimulated glycogen synthesis compared to vehicle", "setting": "H9c2 myotubes", "result": "increased insulin-stimulated glycogen synthesis"}, {"measurement": "TXNIP promoter activity (luciferase)", "setting": "human TXNIP promoter", "result": "decreased promoter activity in a dose dependent manner"}, {"measurement": "AMPK activation", "setting": "AMPK", "result": "activation of AMPK"}, {"measurement": "Intracellular lipolysis rates", "setting": "[1]", "result": "not due to blocking cellular fatty acid uptake or increasing intracellular lipolysis rates"}]}]}
